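Assay format: 96-well plates, 48-hour exposure. The concentration for full growth arrest is given as TGI.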
What was measured:
Assay in all cases: DTP human tumour cell line panel, 48 h
[1] = test system: OVCAR-3 ovarian
[2] = test system: OVCAR-4 ovarian
[3] = test system: PC-3 prostate
[4] = test system: 786-0 renal
[5] = test system: SR leukemia
[6] = test system: RXF 393 renal
[7] = test system: EKVX NSCLC
[8] = test system: SK-OV-3 ovarian
[9] = test system: HOP-62 NSCLC
[10] = test system: MDA-MB-435
[11] = test system: UO-31 renal
[12] = test system: NCI-H460 lung
[13] = test system: U251 CNS
[14] = test system: MOLT-4 leukemia
[15] = test system: HT29 colon
[16] = test system: COLO 205 colon
[17] = test system: SNB-19 CNS
[18] = test system: SK-MEL-5 melanoma
[19] = test system: UACC-257 melanoma
[20] = test system: IGROV1 ovarian
[21] = test system: HS 578T breast
[22] = test system: SF-295 CNS
[23] = test system: NCI-H522 lung
[24] = test system: SN12C renal
[25] = test system: M14 melanoma
[26] = test system: NCI-H23 lung
[27] = test system: MDA-N
[28] = test system: CAKI-1 renal
[29] = test system: MCF7 breast
[30] = test system: UACC-62 melanoma
[31] = test system: SK-MEL-2 melanoma
[32] = test system: LOX IMVI melanoma
[33] = test system: HL-60(TB) leukemia
[34] = test system: KM12 colon
[35] = test system: K-562 leukemia
[36] = test system: SW-620 colon
[37] = test system: NCI/ADR-RES ovarian
[38] = test system: CCRF-CEM leukemia
[39] = test system: HCT-116 colon
[40] = test system: SF-268 CNS
[41] = test system: SF-539 CNS
[42] = test system: A498 renal
[43] = test system: RPMI-8226 leukemia
[44] = test system: DU-145 prostate
[45] = test system: HOP-92 NSCLC
[46] = test system: T-47D breast
[47] = test system: TK-10 renal
[48] = test system: NCI-H226 lung
[49] = test system: MALME-3M melanoma
[50] = test system: MDA-MB-231 breast
[51] = test system: A549 NSCLC
[52] = test system: OVCAR-5 ovarian
[53] = test system: SNB-75 CNS
[54] = test system: BT-549 breast
[55] = test system: HCC-2998 colon
[56] = test system: OVCAR-8 ovarian
[57] = test system: ACHN renal
[58] = test system: SK-MEL-28 melanoma
[59] = test system: HCT-15 colon

**Q.** For `Clc1ccc(C2=NNC(c3cccc(Cl)c3)C2)cc1` (centres undefined), which TGI [1] is on record?
**A.** > 100 µM

**Q.** What about the TGI [2] of the same molecule?
**A.** > 100 µM

**Q.** And the TGI [3]?
**A.** 97.4 µM

**Q.** What about the TGI [4] of the same molecule?
**A.** 92.7 µM

**Q.** What about the TGI [5] of the same molecule?
**A.** > 100 µM

**Q.** What about the TGI [6] of the same molecule?
**A.** > 100 µM

**Q.** And the TGI [7]?
**A.** > 100 µM

**Q.** And the TGI [8]?
**A.** 78.1 µM

**Q.** What about the TGI [9] of the same molecule?
**A.** > 100 µM

**Q.** What about the TGI [10] of the same molecule?
**A.** 41.8 µM

**Q.** And the TGI [11]?
**A.** 21.4 µM

**Q.** What about the TGI [12] of the same molecule?
**A.** > 100 µM

**Q.** What about the TGI [13] of the same molecule?
**A.** 37.5 µM

**Q.** And the TGI [14]?
**A.** > 100 µM

**Q.** What about the TGI [15] of the same molecule?
**A.** > 100 µM

**Q.** What about the TGI [16] of the same molecule?
**A.** 29.3 µM

**Q.** And the TGI [17]?
**A.** > 100 µM

**Q.** What about the TGI [18] of the same molecule?
**A.** 28.1 µM

**Q.** What about the TGI [19] of the same molecule?
**A.** > 100 µM

**Q.** What about the TGI [20] of the same molecule?
**A.** 5.07 µM

**Q.** And the TGI [21]?
**A.** > 100 µM

**Q.** And the TGI [22]?
**A.** 92.6 µM

**Q.** And the TGI [23]?
**A.** 14.4 µM

**Q.** And the TGI [24]?
**A.** 53.2 µM

**Q.** And the TGI [25]?
**A.** > 100 µM

**Q.** What about the TGI [26] of the same molecule?
**A.** > 100 µM

**Q.** And the TGI [27]?
**A.** 59.6 µM

**Q.** What about the TGI [28] of the same molecule?
**A.** > 100 µM

**Q.** And the TGI [29]?
**A.** > 100 µM

**Q.** And the TGI [30]?
**A.** > 100 µM

**Q.** What about the TGI [31] of the same molecule?
**A.** 5.55 µM

**Q.** What about the TGI [32] of the same molecule?
**A.** 33.7 µM

**Q.** What about the TGI [33] of the same molecule?
**A.** > 100 µM

**Q.** What about the TGI [34] of the same molecule?
**A.** > 100 µM

**Q.** And the TGI [35]?
**A.** > 100 µM

**Q.** And the TGI [36]?
**A.** 74.9 µM

**Q.** What about the TGI [37] of the same molecule?
**A.** 89.9 µM

**Q.** What about the TGI [38] of the same molecule?
**A.** 96.8 µM

**Q.** And the TGI [39]?
**A.** > 100 µM

**Q.** What about the TGI [40] of the same molecule?
**A.** > 100 µM

**Q.** What about the TGI [41] of the same molecule?
**A.** > 100 µM

**Q.** And the TGI [42]?
**A.** 45 µM

**Q.** And the TGI [43]?
**A.** 41 µM

**Q.** And the TGI [44]?
**A.** > 100 µM

**Q.** What about the TGI [45] of the same molecule?
**A.** 38.2 µM

**Q.** And the TGI [46]?
**A.** > 100 µM

**Q.** And the TGI [47]?
**A.** 79.9 µM

**Q.** What about the TGI [48] of the same molecule?
**A.** > 100 µM

**Q.** And the TGI [49]?
**A.** > 100 µM

**Q.** And the TGI [50]?
**A.** 55.1 µM

**Q.** What about the TGI [51] of the same molecule?
**A.** > 100 µM

**Q.** What about the TGI [52] of the same molecule?
**A.** > 100 µM

**Q.** And the TGI [53]?
**A.** 96.5 µM

**Q.** Which TGI [1] does the source give for `Cc1cc(S(=O)(=O)Nc2n[nH]c(N)n2)c(S)cc1Cl` here?
**A.** > 10 µM

**Q.** What about the TGI [2] of the same molecule?
**A.** > 10 µM

**Q.** And the TGI [3]?
**A.** > 10 µM

**Q.** And the TGI [54]?
**A.** > 10 µM

**Q.** And the TGI [4]?
**A.** > 10 µM

**Q.** What about the TGI [6] of the same molecule?
**A.** > 10 µM

**Q.** And the TGI [7]?
**A.** > 10 µM

**Q.** And the TGI [55]?
**A.** > 10 µM

**Q.** And the TGI [8]?
**A.** > 10 µM

**Q.** And the TGI [9]?
**A.** > 10 µM

**Q.** And the TGI [10]?
**A.** > 10 µM

**Q.** And the TGI [12]?
**A.** > 10 µM

**Q.** What about the TGI [13] of the same molecule?
**A.** > 10 µM

**Q.** What about the TGI [14] of the same molecule?
**A.** > 10 µM

**Q.** What about the TGI [15] of the same molecule?
**A.** > 10 µM

**Q.** What about the TGI [16] of the same molecule?
**A.** > 10 µM

**Q.** And the TGI [17]?
**A.** > 10 µM

**Q.** And the TGI [18]?
**A.** > 10 µM

**Q.** What about the TGI [19] of the same molecule?
**A.** > 10 µM

**Q.** And the TGI [20]?
**A.** > 10 µM

**Q.** And the TGI [21]?
**A.** > 10 µM

**Q.** And the TGI [22]?
**A.** > 10 µM

**Q.** What about the TGI [56] of the same molecule?
**A.** > 10 µM

**Q.** And the TGI [23]?
**A.** > 10 µM

**Q.** What about the TGI [24] of the same molecule?
**A.** > 10 µM

**Q.** What about the TGI [25] of the same molecule?
**A.** > 10 µM

**Q.** What about the TGI [26] of the same molecule?
**A.** > 10 µM

**Q.** What about the TGI [27] of the same molecule?
**A.** > 10 µM

**Q.** And the TGI [28]?
**A.** > 10 µM

**Q.** And the TGI [29]?
**A.** > 10 µM

**Q.** And the TGI [30]?
**A.** > 10 µM

**Q.** What about the TGI [31] of the same molecule?
**A.** > 10 µM

**Q.** And the TGI [32]?
**A.** > 10 µM

**Q.** And the TGI [33]?
**A.** > 10 µM

**Q.** What about the TGI [34] of the same molecule?
**A.** > 10 µM

**Q.** What about the TGI [35] of the same molecule?
**A.** > 10 µM

**Q.** And the TGI [36]?
**A.** > 10 µM

**Q.** And the TGI [37]?
**A.** > 10 µM

**Q.** What about the TGI [38] of the same molecule?
**A.** > 10 µM

**Q.** What about the TGI [39] of the same molecule?
**A.** > 10 µM

**Q.** And the TGI [57]?
**A.** > 10 µM

**Q.** What about the TGI [40] of the same molecule?
**A.** > 10 µM

**Q.** And the TGI [41]?
**A.** > 10 µM

**Q.** And the TGI [58]?
**A.** > 10 µM

**Q.** And the TGI [42]?
**A.** > 10 µM

**Q.** And the TGI [43]?
**A.** > 10 µM

**Q.** What about the TGI [44] of the same molecule?
**A.** > 10 µM

**Q.** What about the TGI [46] of the same molecule?
**A.** > 10 µM

**Q.** What about the TGI [47] of the same molecule?
**A.** > 10 µM

**Q.** And the TGI [48]?
**A.** > 10 µM

**Q.** What about the TGI [49] of the same molecule?
**A.** > 10 µM

**Q.** And the TGI [50]?
**A.** > 10 µM

**Q.** And the TGI [51]?
**A.** > 10 µM

**Q.** And the TGI [52]?
**A.** > 10 µM

**Q.** What about the TGI [53] of the same molecule?
**A.** > 10 µM

**Q.** What about the TGI [59] of the same molecule?
**A.** > 10 µM

— PubChem BioAssay (NCI)
